Key:
[1] = target: TPO (produced in insect cells, RSR Ltd) (Homo sapiens (Human), UniProt P07202); assay: TPO activity (IC50), luminol chemiluminescence assay; type: biochemical; conditions: PBS pH7.4, luminol 100 μM, H2O2 50 μM, chemiluminescence recorded after 15 minutes
Experimental: (§1) The experiments were performed in phosphate-buffered saline (PBS), pH7.4. A 10 mM luminol (A4695, Sigma Aldrich, St Louis, MO, USA) stock was prepared in distilled water and further diluted in PBS to a final concentration of 100 μM. H2O2 was prepared as 1 mM stock in PBS, yielding a final concentration of 50 μM after addition into the assay. The compounds were serially diluted in DMSO in a separate plate as a 100× stock solution, and MPO (purified from HL60 cells) and TPO (produced in insect cells, RSR Ltd, Cardiff, UK), were diluted to yield a final concentration of approximately 14 and 150 ng/mL, generating 5600 and 9300 light counts per seconds (LCPS) upon incubation with luminol.
(§2) The experiment was run by pipetting 2 μL 100× stock solution of the compound and 200 μL diluted enzyme in PBS into wells in a 96-well Optiplate (6005290, Perkin Elmer/Thermo Fischer, Waltham, MS, USA), followed by addition of 10 μL H2O2 containing PBS. Chemiluminescence measurement (Perkin Elmer Wallac Microbeta Trilux 1450-029 (12-detector), Turkuu, Finland) was started directly and recorded after 2, 10 and 15 minutes.

[2] = target: MPO (purified from HL60 cells) (Homo sapiens (Human), UniProt P05164); assay: MPO activity (IC50), luminol chemiluminescence assay; type: biochemical; conditions: PBS pH7.4, luminol 100 μM, H2O2 50 μM, chemiluminescence recorded after 15 minutes
Chain of MPO (purified from HL60 cells) (P05164 49-745): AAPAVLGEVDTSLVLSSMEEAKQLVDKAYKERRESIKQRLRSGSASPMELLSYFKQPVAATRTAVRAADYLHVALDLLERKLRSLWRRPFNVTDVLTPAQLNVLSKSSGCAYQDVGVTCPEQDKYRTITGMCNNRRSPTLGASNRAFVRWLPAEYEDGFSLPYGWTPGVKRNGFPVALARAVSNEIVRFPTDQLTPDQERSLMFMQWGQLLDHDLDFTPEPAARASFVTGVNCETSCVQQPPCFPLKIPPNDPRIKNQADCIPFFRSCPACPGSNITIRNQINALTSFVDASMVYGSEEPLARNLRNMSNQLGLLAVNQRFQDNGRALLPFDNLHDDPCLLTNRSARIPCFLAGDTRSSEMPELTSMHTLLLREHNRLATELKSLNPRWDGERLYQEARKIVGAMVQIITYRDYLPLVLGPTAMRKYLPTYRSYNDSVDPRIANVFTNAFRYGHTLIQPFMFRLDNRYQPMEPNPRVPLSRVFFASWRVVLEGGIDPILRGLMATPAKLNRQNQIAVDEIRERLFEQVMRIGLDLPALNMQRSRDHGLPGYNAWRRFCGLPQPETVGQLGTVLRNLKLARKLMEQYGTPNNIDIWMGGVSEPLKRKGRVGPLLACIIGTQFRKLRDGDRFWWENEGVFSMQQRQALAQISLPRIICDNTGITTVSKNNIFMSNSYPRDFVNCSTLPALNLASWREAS
Experimental: as §1, §2

Chain of TPO (produced in insect cells, RSR Ltd) (P07202 19-933): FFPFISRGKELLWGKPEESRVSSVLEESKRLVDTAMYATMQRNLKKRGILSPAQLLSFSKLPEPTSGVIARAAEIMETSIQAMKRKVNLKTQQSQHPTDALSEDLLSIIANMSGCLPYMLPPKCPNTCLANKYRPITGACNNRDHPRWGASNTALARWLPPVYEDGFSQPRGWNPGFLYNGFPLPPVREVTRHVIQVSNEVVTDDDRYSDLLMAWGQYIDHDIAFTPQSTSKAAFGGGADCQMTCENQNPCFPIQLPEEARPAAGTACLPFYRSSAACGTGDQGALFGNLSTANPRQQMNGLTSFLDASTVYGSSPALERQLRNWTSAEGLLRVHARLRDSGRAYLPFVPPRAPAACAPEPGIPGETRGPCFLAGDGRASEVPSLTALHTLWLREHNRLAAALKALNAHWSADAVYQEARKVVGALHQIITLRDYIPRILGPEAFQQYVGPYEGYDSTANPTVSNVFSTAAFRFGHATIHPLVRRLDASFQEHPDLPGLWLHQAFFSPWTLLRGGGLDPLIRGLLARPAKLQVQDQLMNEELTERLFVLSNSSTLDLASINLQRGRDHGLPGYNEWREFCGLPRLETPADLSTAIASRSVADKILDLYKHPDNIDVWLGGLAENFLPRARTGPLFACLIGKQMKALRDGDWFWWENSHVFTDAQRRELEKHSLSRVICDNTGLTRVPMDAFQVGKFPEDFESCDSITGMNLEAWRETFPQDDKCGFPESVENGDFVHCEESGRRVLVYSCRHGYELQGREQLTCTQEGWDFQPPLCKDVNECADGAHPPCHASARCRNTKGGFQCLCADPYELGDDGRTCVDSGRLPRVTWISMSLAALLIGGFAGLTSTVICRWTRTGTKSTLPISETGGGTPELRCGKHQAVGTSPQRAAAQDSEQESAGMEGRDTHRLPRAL

SMILES | IC50 [1] [nM] | IC50 [2] [nM]
O=c1[nH]c(=S)n(Cc2ccccc2C2CCC(C(F)(F)F)CN2)c2cc[nH]c12 (stereo not shown) [Example 11, 2-Thioxo-1-(2-(5-(trifluoromethyl)piperidin-2-yl)benzyl)-1,2,3,5-tetrahydro-4H-pyrrolo[3,2-d]pyrimidin-4-one] | 540 | 13
O=c1[nH]c(=S)n(Cc2cccnc2C2CCCCN2)c2cc[nH]c12 (stereo not shown) [Example 20, 1-((2-(Piperidin-2-yl)pyridin-3-yl)methyl)-2-thioxo-1,2,3,5-tetrahydro-4H-pyrrolo[3,2-d]pyrimidin-4-one] | 2760 | 46
O=c1[nH]c(=S)n(Cc2ccccc2[C@H]2C[C@@H](C(F)(F)F)CCN2)c2cc[nH]c12 (single isomer, unassigned) [Example 10b] | 430 | 1.5
O=c1[nH]c(=S)n(Cc2ccccc2[C@H]2C[C@@H](C(F)F)CCN2)c2cc[nH]c12 (single isomer, unassigned) [Example 19b] | 570 | 1.3
O=c1[nH]c(=S)n(Cc2ccc(Cl)cc2[C@H]2CCCCN2)c2cc[nH]c12 (single isomer, unassigned) [Example 2b] | 550 | 3.6
O=c1[nH]c(=S)n(Cc2cccc3c2CNCC3)c2cc[nH]c12 [Example 23, 1-((1,2,3,4-Tetrahydroisoquinolin-8-yl)methyl)-2-thioxo-1,2,3,5-tetrahydro-4H-pyrrolo[3,2-d]pyrimidin-4-one] | 380 | 10
O=c1[nH]c(=S)n(Cc2ccccc2[C@@H]2COCCN2)c2cc[nH]c12 [Example 8, (R)-1-(2-(Morpholin-3-yl)benzyl)-2-thioxo-1,2,3,5-tetrahydro-4H-pyrrolo[3,2-d]pyrimidin-4-one] | 930 | 67
O=c1[nH]c(=S)n(Cc2ccccc2C2CC(F)(F)CCN2)c2nc[nH]c12 (stereo not shown) [Example 14, 3-(2-(4,4-Difluoropiperidin-2-yl)benzyl)-2-thioxo-1,2,3,7-tetrahydro-6H-purin-6-one] | 540 | 7.2
O=c1[nH]c(=S)n(Cc2ccc(Cl)cc2[C@H]2COCCN2)c2cc[nH]c12 (single isomer, unassigned) [Example 4a] | 370 | 18.7
O=c1[nH]c(=S)n(Cc2ccccc2C2CCNCC2)c2cc[nH]c12 [Example 30, 1-(2-(Piperidin-4-yl)benzyl)-2-thioxo-1,2,3,5-tetrahydro-4H-pyrrolo[3,2-d]pyrimidin-4-one] | 590 | 29
O=c1[nH]c(=S)n(Cc2ccccc2C2CCCNC2)c2cc[nH]c12 (stereo not shown) [Example 28, 1-(2-(Piperidin-3-yl)benzyl)-2-thioxo-1,2,3,5-tetrahydro-4H-pyrrolo[3,2-d]pyrimidin-4-one] | 680 | 3
O=c1[nH]c(=S)n(Cc2ccccc2[C@H]2C[C@@H](C(F)(F)F)CCN2)c2cc[nH]c12 (single isomer, unassigned) [Example 10a] | 1200 | 6
O=c1[nH]c(=S)n(Cc2ccccc2[C@@H]2C[C@@H](C(F)(F)F)CCN2)c2cc[nH]c12 (stereo in doubt) [Example 17b, rac-2-thioxo-1-(2-((2R,4R)-4-(trifluoromethyl)piperidin-2-yl)benzyl)-1,2,3,5-tetrahydro-4H-pyrrolo[3,2-d]pyrimidin-4-one] | 630 | 3.4
O=c1[nH]c(=S)n(Cc2ccccc2[C@H]2CC(F)(F)CCN2)c2cc[nH]c12 (single isomer, unassigned) [Example 12a] | 670 | 27
O=c1[nH]c(=S)n(Cc2ccc3c(c2)CNC3)c2cc[nH]c12 [Example 25, 1-(Isoindolin-5-ylmethyl)-2-thioxo-1,2,3,5-tetrahydro-4H-pyrrolo[3,2-d]pyrimidin-4-one] | 570 | 103
O=c1[nH]c(=S)n(Cc2cccnc2[C@H]2C[C@H](C(F)(F)F)CCN2)c2cc[nH]c12 (single isomer, unassigned) [Example 31b] | 2900 | 48
O=c1[nH]c(=S)n(Cc2ccc(Cl)cc2[C@H]2CCCN2)c2cc[nH]c12 (single isomer, unassigned) [Example 3a] | 550 | 3
O=c1[nH]c(=S)n(Cc2ccc(Cl)cc2C2COCCN2)c2nc[nH]c12 (stereo not shown) [Example 5, 3-(4-Chloro-2-(morpholin-3-yl)benzyl)-2-thioxo-1,2,3,7-tetrahydro-6H-purin-6-one] | 1680 | 194
O=c1[nH]c(=S)n(Cc2ccccc2[C@H]2C[C@@H](C(F)(F)F)CCN2)c2nc[nH]c12 [Example 13a, 2-Thioxo-3-(2-((2R,4S)-4-(trifluoromethyl)piperidin-2-yl)benzyl)-1,2,3,7-tetrahydro-6H-purin-6-one] | 1050 | 16

SMILES | IC50 [1] [nM] | IC50 [2] [nM]
O=c1[nH]c(=S)n(Cc2ccccc2[C@H]2CNCCO2)c2cc[nH]c12 (single isomer, unassigned) [Example 29] | 540 | 15
O=c1[nH]c(=S)n(Cc2ccccc2C2CCC(F)CN2)c2nc[nH]c12 (stereo not shown) [Example 15, 3-(2-(5-Fluoropiperidin-2-yl)benzyl)-2-thioxo-1,2,3,7-tetrahydro-6H-purin-6-one] | 540 | 16
NC1(c2cccc(Cn3c(=S)[nH]c(=O)c4[nH]ccc43)c2)CCC1 [Example 27, 1-(3-(1-Aminocyclobutyl)benzyl)-2-thioxo-1,2,3,5-tetrahydro-4H-pyrrolo[3,2-d]pyrimidin-4-one] | 670 | 5
O=c1[nH]c(=S)n(Cc2ccc(Cl)cc2[C@H]2CCCN2)c2cc[nH]c12 (single isomer, unassigned) [Example 3b] | 700 | 27.5
O=c1[nH]c(=S)n(Cc2ccccc2[C@@H]2CCCCCN2)c2cc[nH]c12 (single isomer, unassigned) [Example 6b] | 300 | 2.8
O=c1[nH]c(=S)n(Cc2cccc3c2CNC3)c2cc[nH]c12 [Example 26, 1-(Isoindolin-4-ylmethyl)-2-thioxo-1,2,3,5-tetrahydro-4H-pyrrolo[3,2-d]pyrimidin-4-one] | 840 | 13
O=c1[nH]c(=S)n(Cc2cccnc2[C@H]2C[C@H](C(F)(F)F)CCN2)c2cc[nH]c12 (single isomer, unassigned) [Example 31a] | 1700 | 30
O=c1[nH]c(=S)n(Cc2ccccc2[C@H]2C[C@H](C(F)(F)F)CCN2)c2nc[nH]c12 (single isomer, unassigned) [Example 18b] | 410 | 2.7
O=c1[nH]c(=S)n(Cc2ccccc2[C@@H]2C[C@H](C(F)(F)F)CCN2)c2nc[nH]c12 [Example 13b, 2-Thioxo-3-(2-((2S,4R)-4-(trifluoromethyl)piperidin-2-yl)benzyl)-1,2,3,7-tetrahydro-6H-purin-6-one] | 430 | 2.3
NC1(c2ccc(Cn3c(=S)[nH]c(=O)c4[nH]ccc43)cc2)CCC1 [Example 24, 1-(4-(1-Aminocyclobutyl)benzyl)-2-thioxo-1,2,3,5-tetrahydro-4H-pyrrolo[3,2-d]pyrimidin-4-one] | 560 | 12
O=c1[nH]c(=S)n(Cc2ccccc2[C@H]2CCCCN2)c2cc[nH]c12 (single isomer, unassigned) [Example 1b] | 850 | 2.1
O=c1[nH]c(=S)n(Cc2ccccc2[C@H]2C[C@H](C(F)(F)F)CCN2)c2nc[nH]c12 (single isomer, unassigned) [Example 18a] | 730 | 56.3
O=c1[nH]c(=S)n(Cc2ccncc2[C@H]2C[C@@H](C(F)(F)F)CCN2)c2cc[nH]c12 (racemic) [Example 22, rac-2-Thioxo-1-((3-((2R,4S)-4-(trifluoromethyl)piperidin-2-yl)pyridin-4-yl)methyl)-1,2,3,5-tetrahydro-4H-pyrrolo[3,2-d]pyrimidin-4-one] | 950 | 11.5
O=c1[nH]c(=S)n(Cc2cccnc2[C@H]2C[C@@H](C(F)(F)F)CCN2)c2cc[nH]c12 (single isomer, unassigned) [Example 16a] | 1610 | 31.4
O=c1[nH]c(=S)n(Cc2ccccc2[C@H]2C[C@@H](C(F)F)CCN2)c2cc[nH]c12 (single isomer, unassigned) [Example 19a] | 1760 | 11.9
CN1CCNC(c2ccccc2Cn2c(=S)[nH]c(=O)c3[nH]ccc32)C1 (stereo not shown) [Example 9, 1-(2-(4-Methylpiperazin-2-yl)benzyl)-2-thioxo-1,2,3,5-tetrahydro-4H-pyrrolo[3,2-d]pyrimidin-4-one] | 1270 | 10.1
O=c1[nH]c(=S)n(Cc2ccccc2[C@@H]2CCCCCN2)c2cc[nH]c12 (single isomer, unassigned) [Example 6a] | 420 | 19.6
O=c1[nH]c(=S)n(Cc2ccccc2[C@H]2CCCCN2)c2cc[nH]c12 (single isomer, unassigned) [Example 1a] | 1010 | 12.1
O=c1[nH]c(=S)n(Cc2cccnc2[C@H]2C[C@@H](C(F)(F)F)CCN2)c2cc[nH]c12 (single isomer, unassigned) [Example 16b] | 780 | 3.9

Source: patent publication US20240166642A1, “INHIBITORS OF MYELOPEROXIDASE” (ASTRAZENECA AB, priority 2022, published 2024)
